Laboratory results as given in article PMC8558150 (Acta Pharmaceutica Sinica. B, 2021).
Read-outs that look alike come from different tables or passages of the source. Peptide text beside a SMILES is read from it.

Columns and labels:
[1] = biological target: T1, SARS CoV-2 M^pro (Severe acute respiratory syndrome coronavirus 2, UniProt P0DTD1); details: cited from earlier work
[2] = test system: SARS-CoV-2 (isolate USA-WA1/2020); test: Antiviral immunofluorescence assay in Calu-3 cells; assay type: cell-based; details: read-out: Antiviral EC50 in Calu-3 cells
[3] = test system: cathepsin L; details: read-out: cathepsin L IC50; cited from earlier work
[4] = biological target: SARS-CoV-2 M^pro; details: cited from earlier work; for IC50: read-out: FRET IC50
[5] = biological target: T1, SARS CoV-2 M^pro; assay type: cell-based
[6] = biological target: T1, SARS CoV-2 M^pro; assay type: biochemical
[7] = biological target: T1, SARS CoV-2 M^pro; test: Thermal shift assay; assay type: binding
[8] = test system: SARS-CoV-2; details: read-out: EC50, secondary viral yield reduction assay; Vero E6 cells; cited from earlier work
[9] = test system: SARS-CoV M^pro; details: read-out: SARS-CoV M^pro IC50; cited from earlier work

SMILES | result in FlipGFP assay (in words) [5] | result in Protease-Glo luciferase assay (in words) [6] | also measured
CCC[C@H](NC(=O)[C@@H]1[C@H]2CCC[C@H]2CN1C(=O)[C@@H](NC(=O)[C@@H](NC(=O)c1cnccn1)C1CCCCC1)C(C)(C)C)C(=O)C(=O)NC1CC1 [telaprevir] | – | – | inhibition in FRET assay ([1]; at 20 μmol/L): 31%
CSCC[C@@H](C=O)NC(=O)[C@H](CC(C)C)NC(=O)[C@H](CC(C)C)NC(C)=O [calpain inhibitor II] (Ac-Leu-Leu-Met-aldehyde) | – | – | EC50 [2]: 30.3 µM; IC50 [3]: 0.00041 µM
CN(C)[C@@H]1C(O)=C(C(N)=O)C(=O)[C@@]2(O)C(O)=C3C(=O)c4c(O)cccc4[C@@](C)(O)[C@H]3[C@H](O)[C@@H]12 [oxytetracycline] | – | – | Ki [4]: 0.99 ± 0.06 µM
O=c1cc(-c2ccccc2)oc2cc(O)c(O)c(O)c12 [baicalein] | no inhibition | no inhibition | –
CCC(C)SSc1ncc[nH]1 (centres unmarked) [PX-12] | no inhibitory activity | no inhibitory activity | –
CCN(CC)CCCC(C)Nc1ccnc2cc(Cl)ccc12 (centres unmarked) [chloroquine] | – | – | Ki [4]: 0.56 ± 0.12 µM
COC(=O)C1=C(C)NC(C)=C(C(=O)OCCN2CCN(C(c3ccccc3)c3ccccc3)CC2)C1c1cccc([N+](=O)[O-])c1 (centres unmarked) [manidipine] | no activity | no activity | binding to M^pro in thermal shift assay (in words) [7]: did not show binding; IC50 ([4]; in the presence of 0.05% Tween-20): > 100 µM
CC(C)=CC[C@@H](O)C1=CC(=O)c2c(O)ccc(O)c2C1=O [shikonin] | no inhibition | no inhibition | M^pro inhibition in FRET assay in the presence of DTT or GSH (in words) [1]: no inhibition
O=c1sn(-c2cccc3ccccc23)c(=O)n1Cc1ccccc1 [tideglusib] | no inhibitory activity | no inhibitory activity | –
CCOc1nc2cccc(C(=O)O)c2n1Cc1ccc(-c2ccccc2-c2nnn[nH]2)cc1 [candesartan] | – | – | Ki [4]: 0.18 ± 0.02 µM; IC50 [4]: 2.8 ± 0.3 µM
CC(C)c1nc(CN(C)C(=O)N[C@@H](CCN2CCOCC2)C(=O)N[C@H](CC[C@H](Cc2ccccc2)NC(=O)OCc2cncs2)Cc2ccccc2)cs1 [cobicistat] | not conclusive | – | –
CCCCCCNC(=O)n1cc(F)c(=O)[nH]c1=O [carmofur] | no inhibitory activity | no inhibitory activity | –
CC(C)(C)NC(=O)N[C@H](C(=O)N1C[C@H]2[C@@H]([C@H]1C(=O)NC(CC1CCC1)C(=O)C(N)=O)C2(C)C)C(C)(C)C (some centres unmarked) [boceprevir] | – | – | EC50 [8]: 1.95 µM
O=c1c2ccccc2[se]n1-c1ccccc1 [ebselen] | no inhibition | no inhibition | M^pro inhibition in FRET assay in the presence of DTT or GSH (in words) [1]: completely lost the M^pro inhibition
CCN(CC)C(=S)SSC(=S)N(CC)CC [disulfiram] | no inhibition | no inhibition | –
CC(C)c1nc(CN(C)C(=O)N[C@H](C(=O)N[C@@H](Cc2ccccc2)C[C@H](O)[C@H](Cc2ccccc2)NC(=O)OCc2cncs2)C(C)C)cs1 [ritonavir] | not active | not active | –
Cc1cccc(C)c1OCC(=O)N[C@@H](Cc1ccccc1)[C@@H](O)C[C@H](Cc1ccccc1)NC(=O)[C@H](C(C)C)N1CCCNC1=O [lopinavir] | not conclusive | not active | IC50 [9]: 50 µM
Cc1c(O)cccc1C(=O)N[C@@H](CSc1ccccc1)[C@H](O)CN1C[C@H]2CCCC[C@H]2C[C@H]1C(=O)NC(C)(C)C [nelfinavir] | not conclusive | – | –
COC(=O)N[C@H](C(=O)N[C@@H](Cc1ccccc1)[C@@H](O)CN(Cc1ccc(-c2ccccn2)cc1)NC(=O)[C@@H](NC(=O)OC)C(C)(C)C)C(C)(C)C [atazanavir] | not conclusive | – | –
CCCC(NC(=O)C(CC(C)C)NC(=O)OCc1ccccc1)C(=O)C(=O)NCc1ccccn1 (centres unmarked) [calpain inhibitor XII] | – | – | EC50 [2]: 14.8 µM; IC50 [3]: 0.00162 µM
